Measurements published in ChEMBL document CHEMBL3600303, “The N-Terminal T-T Motif of a Third-Generation HIV-1 Fusion Inhibitor Is Not Required for Binding Affinity and Antiviral Activity” (J Med Chem, 2015).
Calls of active or inactive are those of the source. The calls are words filed in the database; no cut-off is given here.

What was measured:
[1] = tested on: Human immunodeficiency virus 1; experiment: Ratio of IC50 for ENF-resistant HIV1 NL4-3 harboring gp41 N-terminal heptad repeat V38M mutant to IC50 for wild type HIV1 NL4-3; assay type: functional
[2] = tested on: Human immunodeficiency virus 1; experiment: Ratio of IC50 for ENF-resistant HIV1 NL4-3 harboring gp41 N-terminal heptad repeat V38A/N42T double mutant to IC50 for wild type HIV1 NL4-3; assay type: functional
[3] = tested on: Human immunodeficiency virus 1; experiment: Antiviral activity against wild type HIV1 NL4-3 infected in human TZM-bl cells assessed as inhibition of viral replication after 2 days by luciferase reporter gene assay; assay type: functional, organism-based; conditions: Human immunodeficiency virus 1, NL4-3, TZM-bl, 48 h
Serum = experiment: Metabolic stability in Sprague-Dawley rat serum at 4 mg/kg, ip measured at 0.5 to 2 hrs post dose; assay type: ADME, organism-based; conditions: in vivo
[4] = Thermostability of the compound in PBS assessed as melting temperature at 20 uM by CD spectroscopic analysis; assay type: physicochemical; conditions: buffer
[5] = tested on: Human immunodeficiency virus 1; experiment: Antiviral activity against ENF-resistant HIV1 NL4-3 harboring gp41 N-terminal heptad repeat I37T/N43K double mutant infected in human TZM-bl cells assessed as inhibition of viral entry into cells after 48 hrs by single-cycle infection assay; assay type: functional, organism-based
[6] = tested on: Human immunodeficiency virus 1; experiment: Antiviral activity against ENF-resistant HIV1 NL4-3 harboring gp41 N-terminal heptad repeat I37T mutant infected in human TZM-bl cells assessed as inhibition of viral entry into cells after 48 hrs by single-cycle infection assay; assay type: functional, organism-based
[7] = tested on: Human immunodeficiency virus 1; experiment: Ratio of IC50 for ENF-resistant HIV1 NL4-3 harboring gp41 N-terminal heptad repeat D36S/V38M double mutant to IC50 for wild type HIV1 NL4-3; assay type: functional
[8] = tested on: Human immunodeficiency virus 1; experiment: Antiviral activity against ENF-resistant HIV1 NL4-3 harboring gp41 N-terminal heptad repeat D36G mutant infected in human TZM-bl cells assessed as inhibition of viral entry into cells after 48 hrs by single-cycle infection assay; assay type: functional, organism-based
[9] = tested on: Human immunodeficiency virus 1; experiment: Ratio of IC50 for ENF-resistant HIV1 NL4-3 harboring gp41 N-terminal heptad repeat D36G mutant to IC50 for wild type HIV1 NL4-3; assay type: functional
[10] = tested on: Human immunodeficiency virus 1; experiment: Antiviral activity against ENF-resistant HIV1 NL4-3 harboring gp41 N-terminal heptad repeat D36S/V38M double mutant infected in human TZM-bl cells assessed as inhibition of viral entry into cells after 48 hrs by single-cycle infection assay; assay type: functional, organism-based
[11] = biological target: Envelope glycoprotein gp160 (Human immunodeficiency virus 1) (UniProt Q72502); experiment: Binding affinity to HIV1 NL4-3 gp41 N-terminal heptad repeat V38A/N42T double mutant after 30 mins by CD spectroscopic analysis
[12] = biological target: Envelope glycoprotein gp160 (Human immunodeficiency virus 1) (UniProt Q72502); experiment: Binding affinity to HIV1 NL4-3 gp41 N-terminal heptad repeat G36D mutant after 30 mins by CD spectroscopic analysis
[13] = tested on: Human immunodeficiency virus 1; experiment: Antiviral activity against HIV-1 SC42261.8 pseudovirus infected in human TZM-bl cells assessed as inhibition of viral entry into cells after 48 hrs by single-cycle infection assay; assay type: functional, organism-based; conditions: Human immunodeficiency virus 1, SC42261.8, TZM-bl
[14] = tested on: Human immunodeficiency virus 1; experiment: Antiviral activity against HIV1 NL4-3 pseudovirus infected in human TZM-bl cells assessed as inhibition of viral entry into cells after 48 hrs by single-cycle infection assay; assay type: functional, organism-based; conditions: Human immunodeficiency virus 1, NL4-3, TZM-bl
[15] = tested on: Human immunodeficiency virus 1; experiment: Antiviral activity against ENF-resistant HIV1 NL4-3 harboring gp41 N-terminal heptad repeat Q40H mutant infected in human TZM-bl cells assessed as inhibition of viral entry into cells after 48 hrs by single-cycle infection assay; assay type: functional, organism-based
[16] = biological target: Envelope glycoprotein gp160 (Human immunodeficiency virus 1) (UniProt Q72502); experiment: Binding affinity to HIV1 NL4-3 gp41 N-terminal heptad repeat I37T mutant after 30 mins by CD spectroscopic analysis
[17] = biological target: Envelope glycoprotein gp160 (Human immunodeficiency virus 1) (UniProt Q72502); experiment: Binding affinity to HIV1 NL4-3 gp41 N-terminal heptad repeat Q40H mutant after 30 mins by CD spectroscopic analysis
[18] = tested on: Human immunodeficiency virus 1; experiment: Ratio of IC50 for ENF-resistant HIV1 NL4-3 harboring gp41 N-terminal heptad repeat V38A mutant to IC50 for wild type HIV1 NL4-3; assay type: functional
[19] = biological target: Envelope glycoprotein gp160 (Human immunodeficiency virus type 1 group M subtype B (isolate HXB2)(HIV-1)) (UniProt P04578); experiment: Binding affinity to HIV-1 HXB2 gp41 N-terminal heptad repeat assessed as thermostability of protein-compound complex at 10 uM after 30 mins by CD spectroscopic analysis; conditions: Human immunodeficiency virus 1
[20] = tested on: Human immunodeficiency virus 1; experiment: Antiviral activity against ENF-resistant HIV1 NL4-3 harboring gp41 N-terminal heptad repeat V38A/N42T double mutant infected in human TZM-bl cells assessed as inhibition of viral entry into cells after 48 hrs by single-cycle infection assay; assay type: functional, organism-based
[21] = tested on: Human immunodeficiency virus 1; experiment: Antiviral activity against ENF-resistant HIV1 NL4-3 harboring gp41 N-terminal heptad repeat N43K mutant infected in human TZM-bl cells assessed as inhibition of viral entry into cells after 48 hrs by single-cycle infection assay; assay type: functional, organism-based
[22] = tested on: Human immunodeficiency virus 1; experiment: Antiviral activity against HIV-1 ZM214M.15 pseudovirus infected in human TZM-bl cells assessed as inhibition of viral entry into cells after 48 hrs by single-cycle infection assay; assay type: functional, organism-based; conditions: Human immunodeficiency virus 1, ZM214M.15, TZM-bl
[23] = biological target: Envelope glycoprotein gp160 (Human immunodeficiency virus 1) (UniProt Q72502); experiment: Binding affinity to HIV1 NL4-3 gp41 N-terminal heptad repeat N43K mutant after 30 mins by CD spectroscopic analysis
[24] = tested on: Human immunodeficiency virus 1; experiment: Antiviral activity against ENF-resistant HIV1 NL4-3 harboring gp41 N-terminal heptad repeat V38M mutant infected in human TZM-bl cells assessed as inhibition of viral entry into cells after 48 hrs by single-cycle infection assay; assay type: functional, organism-based
[25] = tested on: Human immunodeficiency virus 1; experiment: Ratio of IC50 for ENF-resistant HIV1 NL4-3 harboring gp41 N-terminal heptad repeat I37T mutant to IC50 for wild type HIV1 NL4-3; assay type: functional
[26] = tested on: Human immunodeficiency virus 1; experiment: Antiviral activity against wild type HIV-1; assay type: functional, organism-based
[27] = tested on: Human immunodeficiency virus 1; experiment: Ratio of IC50 for ENF-resistant HIV1 NL4-3 harboring gp41 N-terminal heptad repeat I37T/N43K double mutant to IC50 for wild type HIV1 NL4-3; assay type: functional
[28] = biological target: Envelope glycoprotein gp160 (Human immunodeficiency virus 1) (UniProt Q72502); experiment: Binding affinity to HIV1 NL4-3 gp41 N-terminal heptad repeat I37T/N43K double mutant after 30 mins by CD spectroscopic analysis
[29] = tested on: Envelope glycoprotein gp160 (Human immunodeficiency virus 1), Q72502 [V38A]; experiment: Binding affinity to HIV1 NL4-3 gp41 N-terminal heptad repeat V38A mutant after 30 mins by CD spectroscopic analysis
[30] = tested on: Human immunodeficiency virus 1; experiment: Ratio of IC50 for ENF-resistant HIV1 NL4-3 harboring gp41 N-terminal heptad repeat N43K mutant to IC50 for wild type HIV1 NL4-3; assay type: functional
[31] = tested on: Human immunodeficiency virus 1; experiment: Antiviral activity against HIV-1 pseudovirus harboring Q66R/N126K double mutant; assay type: functional, organism-based
[32] = tested on: Human immunodeficiency virus 1; experiment: Antiviral activity against wild type HIV1 NL4-3 infected in human TZM-bl cells assessed as inhibition of viral entry into cells after 48 hrs by single-cycle infection assay; assay type: functional, organism-based; conditions: Human immunodeficiency virus 1, NL4-3, TZM-bl
[33] = tested on: Human immunodeficiency virus 1; experiment: Antiviral activity against HIV-1 SF162 pseudovirus infected in human TZM-bl cells assessed as inhibition of viral entry into cells after 48 hrs by single-cycle infection assay; assay type: functional, organism-based; conditions: Human immunodeficiency virus 1, SF162, TZM-bl
[34] = tested on: Human immunodeficiency virus 1; experiment: Antiviral activity against ENF-resistant HIV1 NL4-3 harboring gp41 N-terminal heptad repeat V38A mutant infected in human TZM-bl cells assessed as inhibition of viral entry into cells after 48 hrs by single-cycle infection assay; assay type: functional, organism-based
[35] = biological target: Envelope glycoprotein gp160 (Human immunodeficiency virus type 1 group M subtype B (isolate HXB2)(HIV-1), UniProt P04578); experiment: Binding affinity to HIV-1 HXB2 gp41 N-terminal heptad repeat assessed as inhibition of 6-helix bundle formation after 30 mins by ELISA; design: species or system Human immunodeficiency virus 1
[36] = tested on: Human immunodeficiency virus 1; experiment: Ratio of IC50 for ENF-resistant HIV1 NL4-3 harboring gp41 N-terminal heptad repeat Q40H mutant to IC50 for wild type HIV1 NL4-3; assay type: functional

CC[C@H](C)[C@H](NC(=O)[C@H](C)NC(=O)[C@H](CCCNC(=N)N)NC(=O)[C@H](CC(=O)O)NC(=O)[C@H](Cc1c[nH]c2ccccc12)NC(=O)[C@H](C)NC(=O)[C@H](CCC(=O)O)NC(=O)[C@H](Cc1c[nH]c2ccccc12)NC(=O)[C@@H](NC(=O)[C@@H](N)[C@@H](C)O)[C@@H](C)O)C(=O)N[C@@H](C)C(=O)N[C@@H](CCC(=O)O)C(=O)N[C@@H](Cc1ccc(O)cc1)C(=O)N[C@@H](C)C(=O)N[C@@H](C)C(=O)N[C@@H](CCCNC(=N)N)C(=O)N[C@H](C(=O)N[C@@H](CCC(=O)O)C(=O)N[C@@H](C)C(=O)N[C@@H](CC(C)C)C(=O)N[C@H](C(=O)N[C@@H](CCCNC(=N)N)C(=O)N[C@@H](C)C(=O)N[C@@H](C)C(=O)N[C@@H](CCC(N)=O)C(=O)N[C@@H](CCC(=O)O)C(=O)N[C@@H](CCC(N)=O)C(=O)N[C@@H](CCC(N)=O)C(=O)N[C@@H](CCC(=O)O)C(=O)N[C@@H](CCCCN)C(=O)N[C@@H](CC(N)=O)C(=O)N[C@@H](CCC(=O)O)C(=O)N[C@@H](C)C(=O)N[C@@H](C)C(=O)N[C@@H](CC(C)C)C(=O)N[C@@H](CCCNC(=N)N)C(=O)N[C@@H](CCC(=O)O)C(=O)N[C@@H](CC(C)C)C(=O)O)[C@@H](C)CC)[C@@H](C)CC
Ratio IC50 [1]: 1.6 | Ratio IC50 [2]: 0.7 | IC50 [3]: 0.52 nM | Stability (Serum): Stable | Tm [4]: 45.1 °C | IC50 [5]: 1.7 nM | IC50 [6]: 1.8 nM | Ratio IC50 [7]: 1.1 | IC50 [8]: 1.7 nM | Ratio IC50 [9]: 1.6 | IC50 [10]: 1.2 nM | Activity [11]: Active | Activity [12]: Active | IC50 [13]: 2.64 nM | IC50 [14]: 1.15 nM | IC50 [15]: 1.4 nM | Activity [16]: Active | Activity [17]: Active | Ratio IC50 [18]: 1.2 | Tm [19]: 82.2 °C | IC50 [20]: 0.8 nM | IC50 [21]: 2.1 nM | IC50 [22]: 0.68 nM | Activity [23]: Active | IC50 [24]: 1.8 nM | Ratio IC50 [25]: 1.6 | IC50 [26]: 1.32 nM | Ratio IC50 [27]: 1.6 | Activity [28]: Active | Activity [29]: Active | Ratio IC50 [30]: 1.9 | IC50 [31]: 8.36 nM | IC50 [32]: 1.1 nM | IC50 [33]: 12.5 nM | IC50 [34]: 1.3 nM | IC50 [35]: 67.5 nM | Ratio IC50 [36]: 1.3
